Results reported in paper PMC4335062, “Data-Driven Prediction and Design of bZIP Coiled-Coil Interactions” (PLoS Computational Biology, 2015).
pKd: −log10 of the molar value. Where two headings read alike, the source gives them in different places. Where no end group is shown, it is not given here.

Assays:
Test in all cases: Direct-binding FRET assay
Conditions in all cases: read-out: Kd
[1] = biological target: JUN (Homo sapiens, UniProt P05412); design: made in house
Procedure: (§1) The direct binding assay was performed manually in 384-well plates and is similar to a previously described assay. Wells were filled with 20 μL of 1 mM TCEP-HCl. A 4 μM stock of acceptor protein was made fresh in 1 mM TCEP-HCl, and 20 μL was titrated in 2-fold dilutions over the wells. […] The direct-binding FRET data were fit as previously described. Briefly, the Kd of the designed peptide homodimer was experimentally determined and used with previously determined target homodimer Kd values to determine the heterodimer Kd. The homodimer Kd values used for the human bZIPs were from; experiments done by […] et al. used the same protein constructs for the human bZIP proteins, the same buffer conditions, and the same assay. The fitting used a system of ordinary differential equations to describe the concentrations of homo and heterodimers formed by the donor (D) and acceptor (A) as a function of the heterodimer Kd. MATLAB was used to simulate the binding experiment for different Kd values, and the value that gave the best agreement between simulation and experiment was assigned. A minimum 15% change in the donor fluorescence upon titrating the acceptor peptide from 0 to 1000 nM was required for a fit to be attempted. If this minimum was not met, the interaction was classified as “NS” for no signal change. […] For such curves, we removed the first five points and re-fit the data.

[2] = biological target: MAFG (Homo sapiens, UniProt O15525); design: made in house
Chain of MAFG (O15525 51-114 limits assumed): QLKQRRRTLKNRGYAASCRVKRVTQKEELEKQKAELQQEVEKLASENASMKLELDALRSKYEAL
Procedure: as §1

[3] = biological target: ATF6B (Homo sapiens, UniProt Q99941); design: made in house
Chain of ATF6B (Q99941 325-388 limits assumed): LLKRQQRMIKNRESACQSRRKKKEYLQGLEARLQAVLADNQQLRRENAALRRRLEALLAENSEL
Procedure: as §1

[4] = biological target: FOS (Homo sapiens, UniProt P01100); design: made in house
Procedure: as §1

[5] = biological target: T1, XBP1 (Homo sapiens, UniProt P17861)
T1 construct: made in house
T1 sequence (P17861 70-133 limits assumed): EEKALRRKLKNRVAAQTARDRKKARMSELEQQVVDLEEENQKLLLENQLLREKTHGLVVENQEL
Procedure: as §1

[6] = biological target: T2, NFE2L3 (Homo sapiens, UniProt Q9Y4A8)
T2 construct: made in house
T2 sequence (Q9Y4A8 578-641 limits assumed): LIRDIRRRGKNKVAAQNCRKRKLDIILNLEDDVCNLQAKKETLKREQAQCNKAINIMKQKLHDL
Procedure: as §1

[7] = biological target: T3, CREB1 (Homo sapiens, UniProt P16220)
T3 construct: made in house
T3 sequence (P16220 269-327 limits assumed): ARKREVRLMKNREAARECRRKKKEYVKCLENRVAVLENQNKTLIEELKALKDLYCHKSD
Procedure: as §1

[8] = biological target: T4, ATF3 (Homo sapiens, UniProt P18847)
T4 construct: made in house
T4 sequence (P18847 86-149 limits assumed): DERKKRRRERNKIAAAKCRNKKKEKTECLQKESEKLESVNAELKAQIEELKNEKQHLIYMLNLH
Procedure: as §1

[9] = biological target: T5, ATF4 (Homo sapiens, UniProt P18848)
T5 construct: made in house
T5 sequence (P18848 278-341 limits assumed): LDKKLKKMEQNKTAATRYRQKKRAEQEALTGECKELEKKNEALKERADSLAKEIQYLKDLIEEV
Procedure: as §1

[10] = biological target: T6, NFE2 (Homo sapiens, UniProt Q16621)
T6 construct: made in house
T6 sequence (Q16621 266-329 limits assumed): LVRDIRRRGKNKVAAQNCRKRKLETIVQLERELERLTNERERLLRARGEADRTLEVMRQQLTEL
Procedure: as §1

[11] = biological target: T7, MAFF (Homo sapiens, UniProt Q9ULX9)
T7 construct: made in house
T7 sequence (Q9ULX9 51-114 limits assumed): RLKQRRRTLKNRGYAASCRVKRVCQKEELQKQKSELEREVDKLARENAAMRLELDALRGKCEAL
Procedure: as §1

[12] = 4°C, C-terminal rhodamine design, mean or single
[13] = 4°C, N-terminal rhodamine design, mean or single
[14] = 23°C, C-terminal rhodamine design, mean or single
[15] = 23°C, N-terminal rhodamine design, mean or single
[16] = 37°C, C-terminal rhodamine design, mean or single
[17] = 37°C, N-terminal rhodamine design, mean or single
[18] = 23°C, C-terminal rhodamine design, repeat 1
[19] = 23°C, C-terminal rhodamine design, repeat 2
[20] = 37°C, C-terminal rhodamine design, repeat 1
[21] = 37°C, C-terminal rhodamine design, repeat 2
[22] = 4°C, N-terminal rhodamine design, repeat 1
[23] = 4°C, N-terminal rhodamine design, repeat 2
[24] = 23°C, N-terminal rhodamine design, repeat 1
[25] = 4°C, C-terminal fluorescein design as donor, TAMRA target titrated
[26] = 23°C, C-terminal fluorescein design as donor, TAMRA target titrated
[27] = 37°C, C-terminal fluorescein design as donor, TAMRA target titrated
[28] = 4°C, C-terminal rhodamine design, repeat 1

KRIAYLRQRIAELRNENHVLESRIQRMEKEKDALQQDRDHLEYEL [ATF5-d1]
pKd [1, 12]: 6.92
pKd [1, 13]: < 5.30
pKd [1, 14]: < 5.30
pKd [1, 15]: < 5.30
pKd [1, 16]: < 5.30
pKd [1, 17]: < 5.30
pKd [2, 12]: < 5.30
pKd [2, 14]: < 6.00
pKd [2, 15]: < 6.00
pKd [2, 16]: < 6.00
pKd [2, 17]: < 6.00
pKd [3, 13]: < 5.30
pKd [3, 18]: < 5.30
pKd [3, 19]: < 5.30
pKd [3, 15]: < 5.30
pKd [3, 20]: < 5.30
pKd [3, 21]: < 5.30
pKd [4, 13]: 7.05
pKd [4, 15]: 6.12
pKd [4, 20]: < 5.30
pKd [4, 21]: < 5.30
pKd [5, 12]: < 5.30
pKd [5, 13]: < 5.30
pKd [5, 14]: < 6.00
pKd [5, 15]: < 5.30
pKd [5, 16]: < 6.00
pKd [5, 17]: < 5.30
pKd [6, 12]: < 5.30
pKd [6, 13]: < 6.00
pKd [6, 14]: < 6.00
pKd [6, 15]: < 6.00
pKd [6, 16]: 6.04
pKd [6, 17]: < 6.00
pKd [7, 12]: 6.88
pKd [7, 13]: 6.30
pKd [7, 14]: 6.23
pKd [7, 15]: < 5.30
pKd [7, 17]: < 6.00
pKd [8, 12]: < 5.30
pKd [8, 13]: < 6.00
pKd [8, 14]: < 5.30
pKd [8, 15]: < 6.00
pKd [8, 16]: < 6.00
pKd [8, 17]: < 6.00
pKd [9, 12]: 9.00
pKd [9, 13]: < 6.00
pKd [9, 22]: < 6.00
pKd [9, 23]: < 6.00
pKd ([9]; 4°C, N-terminal rhodamine design, repeat 3): < 6.00
pKd [9, 14]: 9.00
pKd [9, 24]: < 5.30
pKd ([9]; 23°C, N-terminal rhodamine design, repeat 2): < 5.30
pKd [10, 12]: 6.79
pKd [10, 13]: < 5.30
pKd [10, 14]: < 5.30
pKd [10, 15]: < 6.00
pKd [10, 16]: < 5.30
pKd [10, 17]: < 6.00
pKd [11, 12]: 6.58
pKd [11, 22]: < 5.30
pKd [11, 14]: < 5.30
pKd [11, 24]: < 5.30
pKd [11, 16]: < 5.30
pKd ([11]; 37°C, N-terminal rhodamine design, repeat 1): < 5.30

NQIKTLRTRLSKLRKDNLQLEKDIANLERKAKDLRAEKEQLEYEL [ATF4-d1]
pKd [1, 25]: < 6.00
pKd [1, 12]: > 6.70
pKd [1, 13]: < 6.00
pKd [1, 26]: < 6.00
pKd [1, 14]: > 6.70
pKd [1, 15]: < 5.30
pKd [1, 27]: < 6.00
pKd [1, 16]: 6.21
pKd [1, 17]: < 5.30
pKd [2, 28]: < 5.30
pKd [2, 13]: < 6.00
pKd [2, 18]: < 5.30
pKd [2, 15]: < 6.00
pKd [2, 20]: 6.00 to 6.70
pKd [2, 17]: < 6.00
pKd [3, 25]: < 6.00
pKd [3, 28]: < 5.30
pKd [3, 13]: < 6.00
pKd [3, 26]: < 6.00
pKd [3, 18]: < 5.30
pKd [3, 15]: < 6.00
pKd [3, 27]: < 6.00
pKd [3, 20]: < 5.30
pKd [3, 17]: < 6.00
pKd [4, 13]: 6.88
pKd [4, 26]: < 6.00
pKd [4, 18]: < 5.30
pKd [4, 15]: < 6.00
pKd [4, 27]: < 6.00
pKd [4, 20]: < 6.00
pKd [4, 17]: < 6.00
pKd [5, 28]: < 6.00
pKd [5, 13]: < 6.00
pKd [5, 18]: < 6.00
pKd [5, 15]: < 6.00
pKd [5, 20]: < 6.00
pKd [5, 17]: < 6.00
pKd [6, 28]: < 5.30
pKd [6, 13]: < 6.00
pKd [6, 18]: < 5.30
pKd [6, 15]: < 6.00
pKd [6, 20]: < 5.30
pKd [6, 17]: < 6.00
pKd [7, 25]: < 5.30
pKd [7, 28]: < 6.00
pKd [7, 13]: < 5.30
pKd [7, 26]: < 6.00
pKd [7, 18]: < 6.00
pKd [7, 15]: < 5.30
pKd [7, 27]: < 6.00
pKd [7, 20]: < 5.30
pKd [7, 17]: < 6.00
pKd [8, 28]: < 6.00
pKd [8, 13]: < 6.00
pKd [8, 26]: < 6.00
pKd [8, 18]: < 6.00
pKd [8, 15]: < 6.00
pKd [8, 27]: < 6.00
pKd [8, 20]: < 6.00
pKd [8, 17]: < 6.00
pKd [9, 25]: 8.64
pKd [9, 12]: 9.00
pKd [9, 22]: < 5.30
pKd [9, 23]: < 5.30
pKd [9, 26]: 8.43
pKd [9, 14]: 9.00
pKd [9, 27]: 8.00
pKd [10, 25]: 7.37
pKd [10, 13]: < 5.30
pKd [10, 18]: 6.00 to 6.70
pKd [10, 15]: < 6.00
pKd [10, 27]: < 6.00
pKd [10, 20]: < 5.30
pKd [10, 21]: < 5.30
pKd [10, 17]: < 6.00
pKd [11, 12]: < 5.30
pKd [11, 13]: > 6.70
pKd [11, 18]: < 5.30
pKd [11, 19]: > 6.70
pKd [11, 15]: < 6.00
pKd [11, 20]: > 6.70
pKd [11, 21]: > 6.70
pKd [11, 17]: < 6.00
